Data set [1] relates to CD44 hyaluronic acid receptor. In words: Immunohistochemical demonstration of the hyaluronic acid receptor (CD44) in human skin explants kept alive. Type of data set: cell-based. The settings on record: glucosamine 5 μM in culture medium, D4, scores 0 to 4, control skin 3.4 ± 0.7. The procedure: For this, a method of culturing was used which allows human skin to be kept alive under metabolic conditions close to in vivo (individuals aged between 50 and 60).
The glucosamine in aqueous solution was added to the culture medium, at the plasma concentration (5 μM), thus making it possible to simulate oral and/or parenteral administration.
Skin fragments were obtained after plastic surgery (mammary or abdominal plasties) from menopausal women (8 different donors from female individuals aged between 50 and 60). The fragments are placed in inserts which are themselves suspended above culture wells. Culture medium is added to the bottom of the wells, the medium passing by slow diffusion between the two compartments by means of a porous membrane (12 μm).
From D0 to D10, glucosamine was added to the culture medium of the skin fragments, every day. For the CD44 analysis, a series of skin samples was taken at D4. A second series was taken at D10 for assaying the collagen synthesis.
The immunodetection was carried out using the CSA kit (DAKO) and visualized in red with AEC (3-amino-9-ethylcarbazole).
Semi-quantitative scores made it possible to specify the intensity of the immunolabeling (scores 0 to 4, from negative to intense). […]

Data set [2] has as its system Human fibroblasts. Put plainly: Cytotoxicity on fibroblasts (number of cells by DNA fluorimetry). Type of data set: cell-based. Conditions: for DNA (number of cells): 48 h, control 2.37 ± 0.33. Here is the method:
(§1) Human fibroblasts, harvested by growth from skin explants from a normal young donor, are routinely cultured in DMEM containing 10% of fetal bovine serum (FCS), ascorbic acid (50 μg/ml), penicillin-streptomycin (100 U/ml), referred to in the rest of the report as DMEM-FCS. They are amplified in culture by trypsinizing subconfluent cultures and dividing the dishes 1 in 3. The cultures are used up until passage 14. They are regularly tested for the absence of mycoplasma.
(§2) The glucosamine sulfate is provided in the form of (C6H14NO5)2 S04.2KCl (glucosamine.SO4 titer: 74%) brand Bioiberica, code F0379, Batch 4/0001. A stock solution at 13.6 mg/ml of distilled water is sterilized by filtration through an Acrodisc, and conserved at −20° C.
The fibroblasts are seeded into 24-well multiwells at 25 or 50×10^3 cells/well in DMEM-FCS. After 6 h of attachment, 20 μl of gradual dilutions of the active agents to be tested are added to the cultures. After 24 h of contact, the medium and the active agents are renewed. After 48 h of culture, the medium is removed, and the cell layers are rinsed twice with physiological saline. The number of cells is determined by measuring DNA by the fluorimetric technique using the bisbenzimide reagent in a “Gemini” fluorimeter. The cultures are prepared in triplicate and the measurements are carried out on each culture in duplicate. The control cultures receive the solvent alone.
The toxicity of glucosamine sulfate is tested at 0.5, 1, 5, 10, 20 and 40× the plasma concentration, i.e. 3.4, 6.8, 34, 68, 136 and 272 μg/ml of culture medium.

The subject of data set [3] is MMP3. In words: MMP3 mRNA by RT-PCR, human dermal fibroblasts in a monolayer on plastic. The format is cell-based. Conditions: for MMP3 mRNA: control 1745 ± 31. The procedure: as §1, §2
The fibroblasts are seeded in DMEM-FCS in a proportion of 2.10^5 cells/disk of 6 cm. After 18 h of attachment, the culture medium is renewed with DMEM-FCS containing:
a) glucosamine sulfate alone • [plasma concentration] 2×(n=2) • 5× (n=2) • 10× (n=2) • control (n=3)
The total amount of RNA present in the solution that will be used to carry out the specific mRNA measurements is determined by measuring the 28S ribosomal RNA. The RNA solution is aliquoted and frozen at −80° C. until the specific mRNAs are assayed by RT-PCR. The mRNA results are expressed in arbitrary units (AU) per unit of 28S. The measurements are carried out in triplicate on two or three separate cultures. • MMP3: stromelysin 1 responsible for the degradation of proteoglycans and of other extracellular matrix constituents and activator of MMP 1

Data set [4] deals with fibroblasts. Put plainly: Retracting collagen gel (contractile properties of fibroblasts). The format is cell-based, human. Here is the method: Human fibroblasts, harvested by growth from skin explants from a normal young donor, are routinely cultured in DMEM containing 10% of fetal bovine serum (FCS), ascorbic acid (50 μg/ml), penicillin-streptomycin (100 U/ml), referred to in the rest of the report as DMEM-FCS. They are amplified in culture by trypsinizing subconfluent cultures and dividing the dishes 1 in 3. The cultures are used up until passage 14. They are regularly tested for the absence of mycoplasma. A sterile solution of purified native collagen is mixed with a suspension of fibroblasts, DMEM-FCS medium and the test products in bacteriological dishes. The mixture is brought to 37° C., this resulting in polymerization of the collagen and the formation of a three-dimensional collagen gel trapping the fibroblasts and floating in the culture medium. The cells attached to the collagen fibers and, under the contractile activity of the cytoskeleton of the fibroblasts, the gel is gradually retracted. This gel is commonly referred to as “Retracting Collagen Gel” or RCG. […]

For data set [5], the system named is Vimentin. In words: Example 4 clinical study, skin biopsy mRNA by RT-PCR: vimentin. The format is in vivo, human. Conditions: oral, equivalent to 250 mg of glucosamine, 8 weeks, women aged 50 to 65, n=8; placebo 1.27 ± 0.33. The procedure: (§3) Restrictive randomized monocentric double-blind study versus placebo. Fifteen women, aged 50 to 65, were given, as a supplement, for 8 weeks, either a placebo (n=7) or glucosamine sulfate (n=8) equivalent to 250 mg of glucosamine (GLU).
(§4) A skin biopsy 3 mm in diameter (inner face of the arm) was taken before the beginning (T0) and at the end of the 8 weeks of supplementation (T8).
(§5) The total RNA contained in the skin samples was extracted and purified by means of an Ambion Ribo Pure Kit.
(§6) The analysis of the specific dermal markers was carried out by RT-PCR as previously described (Nusgens et al, JID, 116: 853-859, 2001). All the results are expressed in arbitrary units relative to the amount of 28S rRNA.
(§7) The effects of the supplementation (placebo or GLU) were then analyzed by comparing, for each volunteer, the individual expression of the mRNAs at T8 and at T0. A […] ratio was thus calculated. The means of each ratio of the two groups were compared using a Student's test for paired samples.

Data set [6] has as its system Decorin. In words: Example 4 clinical study, skin biopsy mRNA by RT-PCR: decorin. Type of data set: in vivo, human. The settings on record: oral, equivalent to 250 mg of glucosamine, 8 weeks, women aged 50 to 65, n=8; placebo 1.11 ± 0.22. Here is the method:
as §3, §4, §5, §6, §7

The test system of data set [7] is Fibromodulin. In words: Example 4 clinical study, skin biopsy mRNA by RT-PCR: fibromodulin. Type of data set: in vivo, human. Conditions: oral, equivalent to 250 mg of glucosamine, 8 weeks, women aged 50 to 65, n=8; placebo 1.12 ± 0.16. Here is the method:
as §3, §4, §5, §6, §7

Data set [8] has as its system Biglycan. Put plainly: Example 4 clinical study, skin biopsy mRNA by RT-PCR: biglycan. The settings on record: oral, equivalent to 250 mg of glucosamine, 8 weeks, women aged 50 to 65, n=8; placebo 1.10 ± 0.18. The format is in vivo, human. Here is the method:
as §3, §4, §5, §6, §7

In data set [9] the test system is Hyaluron synthase. Put plainly: Example 4 clinical study, skin biopsy mRNA by RT-PCR: hyaluron synthase. Type of data set: in vivo, human. Conditions: oral, equivalent to 250 mg of glucosamine, 8 weeks, women aged 50 to 65, n=8; placebo 1.51 ± 0.73. Here is the method:
as §3, §4, §5, §6, §7

Where a name gives a salt, the structure may show the parent alone.

For the compound `N[C@@H](C=O)[C@@H](O)[C@H](O)[C@H](O)CO` [glucosamine sulfate], in [1], the “CD44 labeling Topography score (mean semi-quantitative score)” value amounted to 3.7 ± 0.5. Also, the “number of cells (rate of proliferation of the fibroblasts)” value in [2] (34 μg/ml, p=0.04) is “increase in the number of cells”. For the same compound, the “DNA (number of cells)” value was found to be 2.81 ± 0.41 µg/mL in data set [2] (0.5x plasma concentration, 3.4 μg/ml); 2.56 ± 0.37 µg/mL in data set [2] (1x plasma concentration, 6.8 μg/ml); 2.89 ± 0.23 µg/mL in data set [2] (5x plasma concentration, 34 μg/ml); 2.61 ± 0.26 µg/mL in data set [2] (10x plasma concentration, 68 μg/ml); 2.52 ± 0.18 µg/mL in data set [2] (20x plasma concentration, 136 μg/ml); 2.50 ± 0.32 µg/mL in [2] (40x plasma concentration, 272 μg/ml). In data set [2] (even at concentrations representing 40× the plasma concentration), the cytotoxic effect result is given as “No cytotoxic effect”. Besides, the “MMP3 mRNA” value is recorded as 1261 ± 120 UA/28S in data set [3] (2x plasma concentration), 1162 ± 22 UA/28S in data set [3] (5x plasma concentration) and 1060 ± 375 UA/28S in data set [3] (10x plasma concentration). Besides, the “level of MMP3 mRNA (in words)” value in data set [3] (2x, 5x, 10x plasma concentration, p<0.005) is “significant reduction”. Also, the “reduction in the diameter of the collagen gel (retraction)” value in data set [4] (2×, 5× and 10× the plasma concentration, 20 000 fibroblasts, 46 h, control 19 mm) is recorded as 22 mm. For the same compound, the “reduction in diameter of the collagen gel” value in [4] (plasma concentration, 25 000 fibroblasts, 18 hours, controls 21 mm) came out at 23 mm. For the same compound, the “Vimentin mRNA (T8/T0)” value in data set [5] is on record as “significantly increases”. Moreover, the “Decorin mRNA (T8/T0)” value in data set [6] was “significantly increases”. In addition, the “Fibromodulin mRNA (T8/T0)” value in data set [7] was “significantly increases”. In addition, the “Biglycan mRNA (T8/T0)” value in [8] is “significantly increases”. For the same compound, the “Hyaluron synthase mRNA (T8/T0)” value in [9] was “significantly increases”.

The values are drawn from US20100323984A1, “COSMETIC ORAL AND/OR PARENTERAL USE OF GLUCOSAMINE OPTIONALLY IN COMBINATION WITH AT LEAST ONE POLYPHENOL COMPOUND, AND CORRESPONDING COMPOSITION” (LABORATOIRES INNEOV, priority 2006, published 2010).
